Data taken from ChEMBL document CHEMBL3600362, “Synthesis of CNS active thyrotropin-releasing hormone (TRH)-like peptides: Biological evaluation and effect on cognitive impairment induced by cerebral ischemia in mice” (Bioorg Med Chem, 2015).
Calls of active or inactive are those of the source. No cut-off for these calls is given here.

Columns and labels:
[1] = target: T1, Thyrotropin-releasing hormone receptor (Mus musculus, UniProt P21761); experiment: Displacement of [3H]-1-MeHis-TRH from mouse TRH-R1 expressed in HEK293 cells incubated up to 4 hrs by scintillation counting method; assay type: cell-based
T1 sequence (P21761 whole entry): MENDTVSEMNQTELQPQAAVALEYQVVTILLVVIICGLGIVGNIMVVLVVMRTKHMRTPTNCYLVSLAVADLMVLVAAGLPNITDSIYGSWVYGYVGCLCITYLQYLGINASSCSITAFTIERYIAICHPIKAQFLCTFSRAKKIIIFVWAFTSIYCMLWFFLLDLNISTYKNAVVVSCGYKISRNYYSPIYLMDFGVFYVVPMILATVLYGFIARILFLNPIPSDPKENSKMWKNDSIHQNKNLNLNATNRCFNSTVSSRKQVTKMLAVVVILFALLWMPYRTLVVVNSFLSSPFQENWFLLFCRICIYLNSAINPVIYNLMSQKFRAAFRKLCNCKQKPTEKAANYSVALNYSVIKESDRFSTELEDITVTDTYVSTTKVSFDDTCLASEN

Mus musculus = experiment: Reduction in pentobarbital-induced sleeping time in Swiss mouse at 10 umol/kg, iv; assay type: functional
[2] = target: T2, Thyrotropin-releasing hormone receptor 2 (Mus musculus, UniProt Q9ERT1); experiment: Displacement of [3H]-1-MeHis-TRH from mouse TRH-R2 expressed in HEK293 cells incubated up to 4 hrs by scintillation counting method; assay type: cell-based
T2 sequence (Q9ERT1 whole entry): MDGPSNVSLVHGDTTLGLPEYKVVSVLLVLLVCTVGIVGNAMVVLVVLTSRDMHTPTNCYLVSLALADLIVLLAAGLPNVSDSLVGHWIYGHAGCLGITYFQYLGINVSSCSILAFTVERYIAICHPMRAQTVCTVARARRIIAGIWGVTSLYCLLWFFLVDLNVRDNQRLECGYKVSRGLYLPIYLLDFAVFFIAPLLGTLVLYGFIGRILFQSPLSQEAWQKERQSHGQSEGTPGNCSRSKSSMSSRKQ

HEK293 = experiment: Selectivity index, ratio of EC50 for agonist activity at mouse TRH-R1 expressed in HEK293 cells to EC50 for agonist activity at mouse TRH-R2 expressed in HEK293 cells; assay type: cell-based
[3] = target: T2, Thyrotropin-releasing hormone receptor 2; experiment: Agonist activity at mouse TRH-R2 expressed in HEK293 cells assessed as induction of changes in intracellular Ca2+ level by FLIPR method; assay type: functional, cell-based
[4] = target: T1, Thyrotropin-releasing hormone receptor; experiment: Agonist activity at mouse TRH-R1 expressed in HEK293 cells assessed as induction of changes in intracellular Ca2+ level by FLIPR method; assay type: functional, cell-based
Rattus norvegicus [5] = experiment: Inhibition of lipid peroxidation in brain homogenates of Sprague-Dawley rat model of 2 hrs MCA occlusion-induced focal cerebral ischemia assessed as reduction in MDA levels at 10 umol/kg, iv administered immediately after reperfusion and measured 22 hrs after reperfusion by TBARS assay; assay type: functional, organism-based
Rattus norvegicus [6] = experiment: Effect on mean latency time during retention trial in Sprague-Dawley rat model of MCA occlusion-induced memory impairment at 10 umol/kg, iv by passive avoidance test; assay type: functional, organism-based
Rattus norvegicus [7] = experiment: Increase in neuronal survival in Sprague-Dawley rat model of MCA occlusion-induced focal cerebral ischemia assessed as increase in neuronal density at hippocampal CA1 regions at 10 umol/kg, iv by Cresyl violet staining based microscopy; assay type: functional, organism-based
Rattus norvegicus [8] = experiment: Reduction in neurological score in Sprague-Dawley rat model of MCA occlusion-induced focal cerebral ischemia at 10 umol/kg, iv administered immediately after reperfusion and measured 22 hrs after reperfusion up to 7 days; assay type: functional, organism-based
[9] = target: T3, Thyrotropin-releasing hormone-degrading ectoenzyme (Mus musculus, UniProt Q8K093); experiment: Stability assessed as mouse recombinant TRH-degrading ectoenzyme-mediated compound degradation up to 18 hrs by HPLC method; assay type: ADME
T3 sequence (Q8K093 whole entry): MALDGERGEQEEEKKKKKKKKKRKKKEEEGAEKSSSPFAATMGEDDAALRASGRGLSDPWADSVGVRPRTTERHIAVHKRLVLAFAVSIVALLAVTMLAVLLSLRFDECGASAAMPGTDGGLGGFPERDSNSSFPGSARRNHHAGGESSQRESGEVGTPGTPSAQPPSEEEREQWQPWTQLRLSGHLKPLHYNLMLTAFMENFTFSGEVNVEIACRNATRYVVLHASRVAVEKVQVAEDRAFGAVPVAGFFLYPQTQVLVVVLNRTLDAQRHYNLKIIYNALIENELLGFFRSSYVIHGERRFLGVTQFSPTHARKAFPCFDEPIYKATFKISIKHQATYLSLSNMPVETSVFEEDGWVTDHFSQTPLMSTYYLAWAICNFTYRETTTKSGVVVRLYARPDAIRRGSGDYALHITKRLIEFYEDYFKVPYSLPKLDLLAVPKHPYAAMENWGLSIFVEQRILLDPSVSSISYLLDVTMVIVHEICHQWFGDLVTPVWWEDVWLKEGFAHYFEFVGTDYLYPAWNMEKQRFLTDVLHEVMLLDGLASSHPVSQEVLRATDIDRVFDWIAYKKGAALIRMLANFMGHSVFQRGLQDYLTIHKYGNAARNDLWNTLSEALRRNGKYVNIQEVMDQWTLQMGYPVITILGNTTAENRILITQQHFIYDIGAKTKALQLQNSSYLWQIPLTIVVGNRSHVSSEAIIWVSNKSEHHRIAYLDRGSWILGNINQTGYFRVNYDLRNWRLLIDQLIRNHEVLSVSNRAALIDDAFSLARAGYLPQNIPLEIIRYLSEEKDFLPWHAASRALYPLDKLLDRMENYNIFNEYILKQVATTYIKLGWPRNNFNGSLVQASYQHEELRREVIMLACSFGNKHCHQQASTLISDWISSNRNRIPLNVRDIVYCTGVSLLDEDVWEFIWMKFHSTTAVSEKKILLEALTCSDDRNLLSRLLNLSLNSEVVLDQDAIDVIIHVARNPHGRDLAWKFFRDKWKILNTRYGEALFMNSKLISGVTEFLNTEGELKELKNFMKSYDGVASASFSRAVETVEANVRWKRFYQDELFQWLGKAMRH

Rattus norvegicus [10] = experiment: Reduction in cognitive impairment in Sprague-Dawley rat assessed as increase in number of entries to platform zone during retention trial at 10 umol/kg, iv measured on day 6 by Morris water maze test (reference value: 0.5); assay type: functional
Rattus norvegicus [11] = experiment: Effect on mean latency time during acquisition trial in Sprague-Dawley rat model of MCA occlusion-induced memory impairment at 10 umol/kg, iv by passive avoidance test; assay type: ADME, organism-based; settings: in vivo
Rattus norvegicus [12] = experiment: Reduction in volume of infarction in Sprague-Dawley rat model of MCA occlusion-induced focal cerebral ischemia assessed as infarcts volume at 10 umol/kg, iv administered immediately after reperfusion and measured 22 hrs after reperfusion (reference value: 237.69 +/- 4.08 mm3); assay type: functional
Rattus norvegicus [13] = experiment: Neuroprotective activity in Sprague-Dawley rat model of MCA occlusion-induced memory impairment assessed as minimum latency time during acquisition trial at 10 umol/kg, iv by passive avoidance test (reference value: 49 secs); assay type: functional
Rattus norvegicus [14] = experiment: Neuroprotective activity in Sprague-Dawley rat model of MCA occlusion-induced memory impairment assessed as maximum latency time during acquisition trial at 10 umol/kg, iv by passive avoidance test (reference value: 49 secs); assay type: functional
Rattus norvegicus [15] = experiment: Reduction in cognitive impairment in Sprague-Dawley rat assessed as reduction in latency to first entry to platform zone during retention trial at 10 umol/kg, iv measured on day 6 by Morris water maze test (reference value: 95.76 secs); assay type: functional
TRH-degrading ectoenzyme = target: T4, TRH-degrading ectoenzyme (Mus musculus, UniProt Q8K093); experiment: Stability assessed as mouse recombinant TRH-degrading ectoenzyme-mediated compound degradation at 1 mM measured within 18 hrs by HPLC method; assay type: ADME; settings: read-out: Drug degradation
T4 sequence (Q8K093 whole entry): T3 sequence (Q8K093 whole entry)

[16] = Half life in human plasma; assay type: ADME, cell-free

| Compound | IC50 [1] | inhibition in vivo at 10 µmol/kg (Mus musculus) | IC50 [2] | Ratio EC50 (HEK293) | EC50 [3] | EC50 [4] | other results |
| --- | --- | --- | --- | --- | --- | --- | --- |
| Cc1cnc(C(=O)N[C@@H](Cc2nc[nH]c2Br)C(=O)N2CCC[C@H]2C(N)=O)cn1 | > 50000 nM | 23.2% | > 50000 nM | 12.4 | 40 nM | 498 nM |  |
| NC(=O)[C@@H]1CCCN1C(=O)[C@H](Cc1nc(I)[nH]c1I)NC(=O)c1cnccn1 | > 50000 nM | 1.5% | > 50000 nM | 36.3 | 310 nM | 11300 nM |  |
| NC(=O)[C@@H]1CCCN1C(=O)[C@H](Cc1nc[nH]c1Br)NC(=O)c1cnccn1 | > 50000 nM | 32.8% | > 50000 nM | 82.9 | 48 nM | 3980 nM |  |
| NC(=O)[C@@H]1CCCN1C(=O)[C@H](Cc1nc[nH]c1Br)NC(=O)c1nccnc1N | > 50000 nM | 29.5% | > 50000 nM | 47.8 | 6 nM | 287 nM |  |
| CC(C)c1nc(C[C@H](NC(=O)C2CCCCN2)C(=O)N2CCC[C@H]2C(N)=O)c[nH]1 (single isomer, unassigned) | > 50000 nM | 42.7% | > 50000 nM | 1.3 | 770 nM | 1000 nM |  |
| Cc1cnc(C(=O)N[C@@H](Cc2nc(Br)[nH]c2Br)C(=O)N2CCC[C@H]2C(N)=O)cn1 | > 50000 nM | 29% | > 50000 nM | 0.77 | 100 nM | 77 nM |  |
| NC(=O)[C@@H]1CCCN1C(=O)[C@H](Cc1nc(Br)[nH]c1Br)NC(=O)c1nccnc1N | > 50000 nM | 12.2% | > 50000 nM | 4.8 | 290 nM | 1410 nM |  |
| NC(=O)[C@@H]1CCCN1C(=O)[C@H](Cc1nc(Br)[nH]c1Br)NC(=O)c1cnccn1 | > 50000 nM | 74.8% | > 50000 nM | 50.8 | 50 nM | 2540 nM | Activity (Rattus norvegicus [5]): Active; Activity (Rattus norvegicus [6]): Active; Activity (Rattus norvegicus [7]): Active; Activity (Rattus norvegicus [8]): Active; Stability [9]: Stable; Activity (Rattus norvegicus [10]): 2.25; Activity (Rattus norvegicus [11]): Non-toxic; Activity (Rattus norvegicus [12]): 196.08 mm3; Time (Rattus norvegicus [13]): 96 s; Time (Rattus norvegicus [14]): 167 s; Time (Rattus norvegicus [15]): 36.31 s |
| CCCc1nc(C[C@H](NC(=O)c2nccnc2N)C(=O)N2CCC[C@H]2C(N)=O)c[nH]1 | > 50000 nM | 52.2% | > 50000 nM | 10.5 | 120 nM | 1560 nM |  |
| NC(=O)[C@@H]1CCCN1C(=O)[C@H](Cc1nc[nH]c1Cl)NC(=O)c1cnccn1 | > 50000 nM | 29.8% | > 50000 nM | 36.5 | 530 nM | 19300 nM |  |
| Cc1cnc(C(=O)N[C@@H](Cc2nc(I)n(Cc3ccccc3)c2I)C(=O)N2CCC[C@H]2C(N)=O)cn1 | > 50000 nM | 50.1% | > 50000 nM | 14.8 | 50 nM | 740 nM |  |
| CCCc1nc(C[C@H](NC(=O)c2cnccn2)C(=O)N2CCC[C@H]2C(N)=O)c[nH]1 | > 50000 nM | 63.6% | > 50000 nM | 2.5 | 60 nM | 150 nM |  |
| NC(=O)[C@@H]1CCCN1C(=O)[C@H](Cc1nc(I)n(Cc2ccccc2)c1I)NC(=O)c1cnccn1 | > 50000 nM | 74.8% | > 50000 nM | 32.6 | 30 nM | 980 nM |  |
| NC(=O)[C@@H]1CCCN1C(=O)[C@H](Cc1cnc[nH]1)NC(=O)[C@@H]1CCC(=O)N1 [PROTIRELIN] | 2.6 nM |  | 7 nM |  | 0.52 nM |  | metabolised at 18 h, 1000 µM (TRH-degrading ectoenzyme): 80%; half-life [16]: 2 min |
| CCn1c(I)nc(C[C@H](NC(=O)c2cnccn2)C(=O)N2CCC[C@H]2C(N)=O)c1I | > 50000 nM | 1.8% | > 50000 nM | 7.5 | 960 nM | 7210 nM |  |
| CCCc1nc(C[C@H](NC(=O)C2CCCCN2)C(=O)N2CCC[C@H]2C(N)=O)c[nH]1 (single isomer, unassigned) | > 50000 nM | 67.4% | > 50000 nM | 235 | 4 nM | 940 nM |  |
| Cn1cnc(C[C@H](NC(=O)c2cnccn2)C(=O)N2CCC[C@H]2C(N)=O)c1Br | > 50000 nM | 32.3% | > 50000 nM | 11.3 | 30 nM | 340 nM |  |
| NC(=O)[C@@H]1CCCN1C(=O)[C@H](Cc1c[nH]cn1)NC(=O)[C@@H]1CCC(=O)N1 [PROTIRELIN] |  | 51.1% |  | 1.9 |  |  | EC50 ([4]; hek293): 1 nM |
| CCCc1nc(C[C@H](NC(=O)c2cnc(C)cn2)C(=O)N2CCC[C@H]2C(N)=O)c[nH]1 | > 50000 nM | 4.1% | > 50000 nM | 1.1 | 15 nM | 17 nM |  |
